Test results taken from publication PMC11803819, “Chemical composition, antioxidant activities, and enzyme inhibitory effects of Lespedeza bicolour Turcz. essential oil” (Journal of Enzyme Inhibition and Medicinal Chemistry, 2025).
Converted amounts (≈) assume the structure as drawn.

Columns and labels:
[1] = target: β-lactamase; settings: cited from earlier work
[2] = ABTS radical scavenging assay; settings: positive control
Protocol: The experimental procedure is derived from the previous methods with some modifications[35]^,[36]. A mixture of 7.0 mM 2,2-azinobis(3-ethylbenzothiazoline-6-sulfonate) (ABTS) solution and 2.6 mM potassium persulfate was prepared to generate the ABTS^•+ free radical. The mixture was subsequently stored in the dark at room temperature for 12 h, facilitating the entire generation of the ABTS^•+ free radical. Additionally, ethanolic EO solutions were prepared at 50, 25, 10, 5, 2.5, and 1 mg/mL concentrations. A microplate reader (Epoch, Biotech company, Minneapolis, MN, USA) was utilised to ascertain the absorbance of the solution, delineated as the absorbance at 734 nm six minutes post-initiation of the reaction. For comparison, ethanol was used as the blank and gradient-diluted solvent. Meanwhile, 0.5 mg/mL 6‐hydroxy‐2,5,7,8‐tetramethylchroman‐2‐carboxylic acid (Trolox) was utilised as the positive control. The ABTS radical scavenging capacity (RSC%) was calculated using the Equation (1). (1) RSC%=A0−A/A0×100% where A0 and A are the absorbance of 200 μL diluted ABTS^•+ solution mixed with 50 μL ethanol and 50 μL sample solution, respectively, at 734 nm. IC50 was then calculated. All tests were performed in triplicates.

[3] = DPPH radical scavenging assay; settings: positive control
Protocol: The experimental procedure was adapted from previous research with minor modifications. The concentrations of Trolox (positive control) and the mother solution of the essential oil EO were 1.0 mg/mL and 20 mg/mL, respectively, in an ethanolic system. 50 μL of the positive control or EO solution was pipetted into a 96‐well microplate and 200 μL of a 2,2-diphenyl-1-picrylhydrazyl (DPPH) solution. The microplate was incubated in the dark at 25 °C for 30 min, and then the absorbance was measured at 517 nm using an Epoch microplate absorbance spectrophotometer (Epoch, Biotech company, Minneapolis, MN, USA). The DPPH radical scavenging capacity (RSC%) was calculated using the Equation (2). […] (2) RSC%=(1−ASample−ASample Blank/AControl)×100% where, ASample is the absorbance of the tested sample at different concentrations, AControl is the absorbance of the control (ethanolic DPPH solution), and ASample Blank is the absorbance of the ethanol sample without DPPH.

[4] = system: acetylcholinesterase (AChE); settings: previous studies; cited from earlier work
acetylcholinesterase (AChE), sequence (P22303 32-614, species assumed): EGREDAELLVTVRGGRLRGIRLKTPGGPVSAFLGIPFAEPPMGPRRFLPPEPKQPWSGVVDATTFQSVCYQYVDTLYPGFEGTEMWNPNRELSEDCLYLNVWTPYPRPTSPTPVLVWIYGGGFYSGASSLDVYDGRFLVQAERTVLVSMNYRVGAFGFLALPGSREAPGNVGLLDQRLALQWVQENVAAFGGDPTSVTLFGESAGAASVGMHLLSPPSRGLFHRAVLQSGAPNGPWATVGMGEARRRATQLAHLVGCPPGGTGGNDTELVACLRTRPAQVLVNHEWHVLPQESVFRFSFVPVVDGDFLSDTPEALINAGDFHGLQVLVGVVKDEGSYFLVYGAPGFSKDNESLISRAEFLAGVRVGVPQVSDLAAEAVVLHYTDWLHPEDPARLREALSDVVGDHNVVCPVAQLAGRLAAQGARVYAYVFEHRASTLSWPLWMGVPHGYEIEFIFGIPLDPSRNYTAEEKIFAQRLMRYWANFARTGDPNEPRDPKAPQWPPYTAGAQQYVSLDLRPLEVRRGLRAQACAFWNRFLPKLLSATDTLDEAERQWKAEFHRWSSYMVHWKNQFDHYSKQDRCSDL

In the case of `COC(=O)C=Cc1ccccc1` [methyl cinnamate], the IC50 [1] is listed as 11.6 mg/L (≈ 71.5 µM).

For `Cc1c(C)c2c(c(C)c1O)CCC(C)(C(=O)O)O2` (stereo not shown) [Trolox, 6‐hydroxy‐2,5,7,8‐tetramethylchroman‐2‐carboxylic acid], the “IC50 of ABTS radical scavenging capacity” value [2] was 6.15 ± 0.15 mg/L and the “IC50 of DPPH scavenging capacity” value [3] was 9.94 ± 0.20 mg/L.

For `C=C[C@](C)(O)CC[C@@H]1[C@@]2(C)CCCC(C)(C)[C@@H]2CC[C@@]1(C)O` [Sclareol], the “Inhibition against AChE” value [4] is listed as “significant inhibition”.
